# Experimental data published in patent US20240059698A1 (Accutar Biotechnology Inc., priority 2022, published 2024).
# Key:
# Format in all cases: cell-based
# HCC827 cells = experiment: Cell growth inhibition (CellTiter-Glo), HCC827; details: Homo sapiens, 72 h, 3 days
# Protocol: (§1) 2. Cell Growth Inhibition for HCC827, HCC827-SVD, HCC827-ASV, HCC827-YVMA, and A431.
# (§2) HCC827(ATCC), HCC827-SVD, HCC827-ASV, and HCC827-YVMA cells were seeded in 96-well plates at 5000 cells/well in 90 μL of RPMI growth medium containing 10% FBS and 1% Penicillin Streptomycin. A431 (ATCC) cells were seeded in 96-well plates at 5000 cells/well in 90 μL of DMEM growth medium containing 10% FBS and 1% Penicillin Streptomycin. Cells were incubated at 37° C. overnight and then administered with 10 μL 10× test compounds prepared in the growth medium at various concentrations. After administration of the compounds, cells were incubated at 37° C. for 3 days. Before the CellTiter-Glo assay, the plates were equilibrated at room temperature for approximately 30 minutes. 100 ul of CellTiter-Glo reagent (Promega) was added to each well. The plates were then incubated at room temperature for 10 minutes and luminescence was recorded by the EnSight® multimode plate reader (PerkinElmer). Table 7 listed selected compounds in cellular growth assay.
# [1] = system: HCC827-SVD cells (human EGFR exon 20 insertion mutant D770_N771insSVD); experiment: Cell growth inhibition (CellTiter-Glo), HCC827-SVD; details: 72 h, 3 days
# Procedure, shortened: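 HCC827 cells with endogenous EGFR knocked out and lentivirally expressing the insertion mutant (single clone) were seeded at 5000 cells/well in RPMI with 10% FBS. After overnight, compounds added; 3 days at 37 °C, then CellTiter-Glo luminescence.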
# [2] = system: HCC827-YVMA cells (human ERBB2 exon20 insertion mutant A775_G776ins YVMA); experiment: Cell growth inhibition (CellTiter-Glo), HCC827-YVMA; details: 72 h, HCC827-YVMA cells, 3 days, CellTiter-Glo, read-out: Cell growth inhibition, GI50 (nM) HCC827-YVMA
# Procedure, shortened: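 HCC827 cells transduced with lentiviral codon-optimized mutant (ERBB2 A775_G776insYVMA or EGFR V769_D770insASV), endogenous EGFR knocked out by CRISPR, single clone selected. Cells seeded overnight in RPMI/10% FBS, then exposed to serially diluted compounds at 37 °C for 3 days; viability read by CellTiter-Glo luminescence.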
# A431 cells = experiment: Cell growth inhibition (CellTiter-Glo), A431; details: Homo sapiens, A-431, 72 h, 3 days
# Protocol: as §1, §2
smiles,measurement,setting,value
"C=CC(=O)N1CCC(c2c[nH]c3ncnc(Nc4ccc(OCc5cc(C(F)(F)F)ccn5)c(Cl)c4)c23)CC1 [Compound 113, 1-(4-(4-((3-chloro-4-((4-(trifluoromethyl)pyridin-2-yl)methoxy)phenyl)amino)-7H-pyrrolo[2,3-d]pyrimidin-5-yl)piperidin-1-yl)prop-2-en-1-one]",GI50,HCC827 cells,< 50 nM
same,GI50,[1],< 50 nM
same,GI50,[2],< 50 nM
same,GI50,A431 cells,< 50 nM
"C=CC(=O)N1CCC(c2c[nH]c3ncnc(Nc4ccc(OCc5cnccn5)c(Cl)c4)c23)CC1 [Compound 116, 1-[4-[4-[3-chloro-4-(pyrazin-2-ylmethoxy)anilino]-7H-pyrrolo[2,3-d]pyrimidin-5-yl]-1-piperidyl]prop-2-en-1-one]",GI50,HCC827 cells,< 50 nM
same,GI50,[1],< 50 nM
same,GI50,[2],< 50 nM
same,GI50,A431 cells,50 to 200 nM
"C=CC(=O)N1CCC(c2c[nH]c3ncnc(Nc4ccc(OCc5cscn5)c(Cl)c4)c23)CC1 [Compound 119, 1-[4-[4-[3-chloro-4-(thiazol-4-ylmethoxy)anilino]-7H-pyrrolo[2,3-d]pyrimidin-5-yl]-1-piperidyl]prop-2-en-1-one]",GI50,HCC827 cells,< 50 nM
same,GI50,[1],< 50 nM
same,GI50,[2],< 50 nM
same,GI50,A431 cells,50 to 200 nM
"C=CC(=O)N1CC(c2c[nH]c3ncnc(Nc4ccc(OCc5ccccn5)c(Cl)c4)c23)C1 [Compound 137, 1-(3-(4-((3-chloro-4-(pyridin-2-ylmethoxy)phenyl)amino)-7H-pyrrolo[2,3-d]pyrimidin-5-yl)azetidin-1-yl)prop-2-en-1-one]",GI50,HCC827 cells,50 to 200 nM
same,GI50,[1],< 50 nM
same,GI50,[2],< 50 nM
same,GI50,A431 cells,> 1000 nM
"C=CC(=O)N1CCC(c2c[nH]c3ncnc(Nc4ccc(Oc5ccc(-c6cc(C)[nH]c(=O)c6)cc5)c(Cl)c4F)c23)CC1 [Compound 138, 4-(4-(4-((5-(1-acryloylpiperidin-4-yl)-7H-pyrrolo[2,3-d]pyrimidin-4-yl)amino)-2-chloro-3-fluorophenoxy)phenyl)-6-methylpyridin-2(1H)-one]",GI50,HCC827 cells,> 1000 nM
same,GI50,[1],50 to 200 nM
same,GI50,[2],200 to 1000 nM
same,GI50,A431 cells,> 1000 nM
"C=CC(=O)N1CCC(c2c[nH]c3ncnc(Nc4ccc(Oc5ccnc(N6C[C@H](OC)[C@H](OC)C6)c5)cc4F)c23)CC1 [Compound 139, 1-(4-(4-((4-((2-((3R,4S)-3,4-dimethoxypyrrolidin-1-yl)pyridin-4-yl)oxy)-2-fluorophenyl)amino)-7H-pyrrolo[2,3-d]pyrimidin-5-yl)piperidin-1-yl)prop-2-en-1-one]",GI50,HCC827 cells,> 1000 nM
same,GI50,[1],50 to 200 nM
same,GI50,[2],> 1000 nM
same,GI50,A431 cells,> 1000 nM
"C=CC(=O)N1CCC(c2c[nH]c3ncnc(Nc4ccc(Oc5ccnc(N6CCC(C(F)(F)F)C6)c5)cc4F)c23)CC1 (centres unmarked) [Compound 140, 1-(4-(4-((2-fluoro-4-((2-(3-(trifluoromethyl)pyrrolidin-1-yl)pyridin-4-yl)oxy)phenyl)amino)-7H-pyrrolo[2,3-d]pyrimidin-5-yl)piperidin-1-yl)prop-2-en-1-one]",GI50,HCC827 cells,200 to 1000 nM
same,GI50,[1],50 to 200 nM
same,GI50,[2],50 to 200 nM
same,GI50,A431 cells,> 1000 nM
"C=CC(=O)N1CCC(c2c[nH]c3ncnc(Nc4ccc(Oc5ccnc(N6C[C@@H](C)O[C@@H](C)C6)c5)c(Cl)c4F)c23)CC1 [Compound 142, 1-(4-(4-((3-chloro-4-((2-((2S,6R)-2,6-dimethylmorpholino)pyridin-4-yl)oxy)-2-fluorophenyl)amino)-7H-pyrrolo[2,3-d]pyrimidin-5-yl)piperidin-1-yl)prop-2-en-1-one]",GI50,HCC827 cells,> 1000 nM
same,GI50,[1],< 50 nM
same,GI50,[2],< 50 nM
same,GI50,A431 cells,> 1000 nM
"C=CC(=O)N1CCC(c2c[nH]c3ncnc(Nc4ccc(Cl)c(Cl)c4F)c23)CC1 [Compound 143, 1-(4-(4-((3,4-dichloro-2-fluorophenyl)amino)-7H-pyrrolo[2,3-d]pyrimidin-5-yl)piperidin-1-yl)prop-2-en-1-one]",GI50,HCC827 cells,< 50 nM
same,GI50,[1],< 50 nM
same,GI50,[2],< 50 nM
same,GI50,A431 cells,> 1000 nM
C=CC(=O)N1CCC(c2c[nH]c3ncnc(Nc4ccc(Oc5ccnc(N6CCC(F)(F)C6)c5)cc4F)c23)CC1 [Compound 145],GI50,HCC827 cells,> 1000 nM
same,GI50,[1],200 to 1000 nM
same,GI50,[2],200 to 1000 nM
same,GI50,A431 cells,> 1000 nM
"C=CC(=O)N1CCC(c2c[nH]c3ncnc(Nc4ccc(Oc5ccnc(NC6CCOCC6)c5)cc4F)c23)CC1 [Compound 146, 1-(4-(4-((2-fluoro-4-((2-((tetrahydro-2H-pyran-4-yl)amino)pyridin-4-yl)oxy)phenyl)amino)-7H-pyrrolo[2,3-d]pyrimidin-5-yl)piperidin-1-yl)prop-2-en-1-one]",GI50,HCC827 cells,> 1000 nM
same,GI50,[1],200 to 1000 nM
same,GI50,[2],200 to 1000 nM
same,GI50,A431 cells,> 1000 nM
"C=CC(=O)N1CCC(c2c[nH]c3ncnc(Nc4ccc(Oc5ccnc(N6CCC[C@@H](OC)C6)c5)cc4F)c23)CC1 [Compound 147, (R)-1-(4-(4-((2-fluoro-4-((2-(3-methoxypiperidin-1-yl)pyridin-4-yl)oxy)phenyl)amino)-7H-pyrrolo[2,3-d]pyrimidin-5-yl)piperidin-1-yl)prop-2-en-1-one]",GI50,HCC827 cells,> 1000 nM
same,GI50,[1],50 to 200 nM
same,GI50,[2],50 to 200 nM
same,GI50,A431 cells,> 1000 nM
"C=CC(=O)N1CCC(c2c[nH]c3ncnc(Nc4ccc(Oc5ccnc(N6CC7C(C6)C7(F)F)c5)cc4F)c23)CC1 (centres unmarked) [Compound 148, 1-(4-(4-((4-((2-(6,6-difluoro-3-azabicyclo[3.1.0]hexan-3-yl)pyridin-4-yl)oxy)-2-fluorophenyl)amino)-7H-pyrrolo[2,3-d]pyrimidin-5-yl)piperidin-1-yl)prop-2-en-1-one]",GI50,HCC827 cells,> 1000 nM
same,GI50,[1],50 to 200 nM
same,GI50,[2],200 to 1000 nM
same,GI50,A431 cells,> 1000 nM
"C=CC(=O)N1CCC(c2c[nH]c3ncnc(Nc4ccc(Oc5nc(-c6cnc(OC)nc6)cs5)cc4F)c23)CC1 [Compound 149, 1-(4-(4-((2-fluoro-4-((4-(2-methoxypyrimidin-5-yl)thiazol-2-yl)oxy)phenyl)amino)-7H-pyrrolo[2,3-d]pyrimidin-5-yl)piperidin-1-yl)prop-2-en-1-one]",GI50,HCC827 cells,> 1000 nM
same,GI50,[1],50 to 200 nM
same,GI50,[2],50 to 200 nM
same,GI50,A431 cells,> 1000 nM
"C=CC(=O)N1CCC(c2c[nH]c3ncnc(Nc4ccc(Oc5ccn(-c6cnc(C)c(F)c6)n5)cc4F)c23)CC1 [Compound 150, 1-(4-(4-((2-fluoro-4-((1-(5-fluoro-6-methylpyridin-3-yl)-1H-pyrazol-3-yl)oxy)phenyl)amino)-7H-pyrrolo[2,3-d]pyrimidin-5-yl)piperidin-1-yl)prop-2-en-1-one]",GI50,HCC827 cells,200 to 1000 nM
same,GI50,[1],50 to 200 nM
same,GI50,[2],50 to 200 nM
same,GI50,A431 cells,> 1000 nM
"C=CC(=O)N1CCC(c2c[nH]c3ncnc(Nc4ccc(OCc5nccs5)c(Cl)c4)c23)CC1 [Compound 153, 1-(4-(4-((3-chloro-4-(thiazol-2-ylmethoxy)phenyl)amino)-7H-pyrrolo[2,3-d]pyrimidin-5-yl)piperidin-1-yl)prop-2-en-1-one]",GI50,HCC827 cells,< 50 nM
same,GI50,[1],< 50 nM
same,GI50,[2],< 50 nM
same,GI50,A431 cells,< 50 nM
"C=CC(=O)N1CCN(c2n[nH]c3ncnc(Nc4ccc(OCc5ccccn5)c(Cl)c4)c23)CC1 [Compound 163, 1-(4-(4-((3-chloro-4-(pyridin-2-ylmethoxy)phenyl)amino)-1H-pyrazolo[3,4-d]pyrimidin-3-yl)piperazin-1-yl)prop-2-en-1-one]",GI50,HCC827 cells,< 50 nM
same,GI50,[1],< 50 nM
same,GI50,[2],< 50 nM
same,GI50,A431 cells,> 1000 nM
"C=CC(=O)N1CCC(c2n[nH]c3ncnc(Nc4ccc(O[C@H]5CCCN(S(=O)(=O)c6ccccc6)C5)cc4F)c23)CC1 [Compound 165, (S)-1-(4-(4-((2-fluoro-4-((1-(phenylsulfonyl)piperidin-3-yl)oxy)phenyl)amino)-1H-pyrazolo[3,4-d]pyrimidin-3-yl)piperidin-1-yl)prop-2-en-1-one]",GI50,HCC827 cells,200 to 1000 nM
same,GI50,[1],50 to 200 nM
same,GI50,[2],50 to 200 nM
same,GI50,A431 cells,> 1000 nM
"C=CC(=O)N1CC(Nc2n[nH]c3ncnc(Nc4ccc(OCc5ccccn5)c(Cl)c4)c23)C1 [Compound 168, 1-(3-((4-((3-chloro-4-(pyridin-2-ylmethoxy)phenyl)amino)-1H-pyrazolo[3,4-d]pyrimidin-3-yl)amino)azetidin-1-yl)prop-2-en-1-one]",GI50,HCC827 cells,200 to 1000 nM
same,GI50,[1],> 1000 nM
same,GI50,[2],> 1000 nM
same,GI50,A431 cells,> 1000 nM
"C=CC(=O)N1CCC(Nc2n[nH]c3ncnc(Nc4ccc(OCc5ccccn5)c(Cl)c4)c23)CC1 [Compound 169, 1-(4-((4-((3-chloro-4-(pyridin-2-ylmethoxy)phenyl)amino)-1H-pyrazolo[3,4-d]pyrimidin-3-yl)amino)piperidin-1-yl)prop-2-en-1-one]",GI50,HCC827 cells,> 1000 nM
same,GI50,[1],> 1000 nM
same,GI50,[2],> 1000 nM
same,GI50,A431 cells,> 1000 nM
